Experimental data from PMC11325505, “Nitrogen-Containing Flavonoids—Preparation and Biological Activity” (ACS Omega, 2024).
Converted amounts (≈) assume the structure as drawn. “And” between values parts separate entries of the source, which are not always exact repeats. Equal entries are not always repeated. Where two headings read alike, the source gives them in different places.

What was measured:
[1] = tested on: nitric oxide (NO) production by RAW 264.7 stimulated by LPS; assay: Anti-inflammatory activity: NO production by LPS-stimulated macrophages; format: cell-based, Murine; conditions: Mus musculus, RAW264.7; LPS-stimulated RAW 264.7; average of four repetitions ± SEM
Protocol: (§1) The anti-inflammatory activity of flavonoids was evaluated as their ability to decrease the production of signaling molecules that mediate inflammation, such as nitric oxide (NO), tumor necrosis factor (TNF-α), and interleukin 6 (IL-6), in LPS-stimulated macrophages.
(§2) The anti-inflammatory activity of the tested flavonoids was determined as the ability to reduce the production of nitric oxide (NO), tumor necrosis factor (TNF-α), and interleukin 6 (IL-6) by RAW 264.7 stimulated by LPS, as previously described.[39],[40] Briefly, 1 × 10^6 cells/mL was seeded into the 96-well plate (100 μL/well). After 48 h, LPS (100 ng/mL) and the samples (3–100 μM) were added to the MEM medium. After 24 h, the medium was mixed with Griess reagent (0.04 g/mL) at a 1:1 ratio. The absorbance was measured after 15 min at 540 nm. Cell viability was determined using the resazurin assay.

[2] = tested on: tumor necrosis factor (TNF-α) production by RAW 264.7 stimulated by LPS; assay: Anti-inflammatory activity: TNF-α production by LPS-stimulated macrophages; format: cell-based, Murine; conditions: Mus musculus, RAW264.7; LPS-stimulated RAW 264.7; average of four repetitions ± SEM; read-out: TNFα production IC50
Protocol: as §1, §2
To determine TNF-α levels, cells were precultivated with the tested compounds for 24 h. After 2 h of incubation with LPS, the medium was diluted 1:10 with ELISA diluent. To determine the level of IL-6, cells were cultivated for 6 h with LPS and the tested compounds. Cytokine production was determined using an uncoated ELISA performed according to the manufacturer’s instructions.

[3] = tested on: immortalized human keratinocytes (HaCaT); assay: Cytotoxicity (resazurin assay), keratinocytes; format: cell-based; conditions: Homo sapiens, HaCaT, 72 h, read-out: HaCaT IC50 (concentration that halved the viability)
Protocol: The cytotoxicity of the prepared derivatives was evaluated by their ability to decrease the viability of immortalized human keratinocytes (HaCaT) and human dermal fibroblasts (HDF).
100 μL of cell suspension containing 10^5 cells/mL was pipetted into a 96-well plate. After 24 h incubation, the tested compounds were added in the concentration range 12.5–200 μM. After 72 h incubation, the cell viability was tested by standard resazurin assay.[41] Briefly, the cells were washed with PBS and incubated with 100 μL of resazurin solution (0.025 mg/mL) for 2 h. The fluorescence was measured at a wavelength of 560 nm excitation/590 nm emission.

[4] = tested on: Staphylococcus aureus MRSA 9; assay: Modulation of antibiotic-resistant phenotype (flavonoid plus breakpoint concentration of antibiotic); format: cell-based; conditions: for minimum inhibitory concentration (MIC) in the presence of erythromycin: erythromycin at breakpoint concentration 1 mg/L; for minimum inhibitory concentration (MIC) in the presence of erythromycin / minimum inhibitory concentration (MIC) in the presence of gentamicin: MIC determined as IC70, three repetitions ± SEM; for minimum inhibitory concentration (MIC) in the presence of gentamicin: gentamicin at breakpoint concentration 1 mg/L
Protocol: To evaluate the ability to modulate bacterial resistance, the tested flavonoids themselves cannot exert antimicrobial activity; therefore, the nontoxic concentration was used, as indicated in Table S5. Clinically relevant antibiotics were selected at breakpoint concentrations for susceptibility testing according to the European Committee on Antimicrobial Susceptibility Testing (EUCAST, version 11.0). […] Flavonoids and their derivatives (from 1 μM to the highest nontoxic concentration) were used in combination with the breakpoint concentration of the antibiotics. After coincubation, the minimum inhibitory concentration (MIC) of flavonoids inhibiting the visible growth of bacteria was determined (Table 2).
(§3) Sensitization of multidrug-resistant clinical bacterial strains was performed according to ref[15]. Antibiotic cutoff concentration was chosen according to the European Committee on Antimicrobial Susceptibility Testing (EUCAST, Clinical breakpoints–bacteria, ver. 11.0). The 200 μM concentration of the derivatives was chosen as the highest test concentration. The absorbance detected at 600 nm was then used to estimate the number of viable cells after 24 h of incubation at 37 °C and 120 rpm.
(§4) Experiments were performed with the respective number of replicates indicated in each figure/table. MIC was determined as IC70. Both IC70 and IC50 values were calculated using the following nonlinear regression in the software GraphPad Prism: […]

[5] = tested on: MRSA 3596; assay: Mode of antimicrobial action with erythromycin or gentamicin, ermA- and aadD-positive strain; format: cell-based, S. aureus; conditions: for MIC, Gentamicin [1 mg/L] yes / MIC: MRSA 3596 (aadD); for MIC, Gentamicin [1 mg/L] yes: with gentamicin 1 mg/L; for MIC: Staphylococcus aureus, 24 h, read-out: MIC, Gentamicin [1 mg/L] no, without gentamicin, Table S6; for effect (mode of action with erythromycin) / effect (mode of action with gentamicin) / FIC (Fractional Inhibitory Concentration Index): MRSA 3596; for MIC, erythromycin [1 mg/L] yes / MIC, erythromycin [1 mg/L] no: MRSA 3596 (ermA); for MIC, erythromycin [1 mg/L] yes: with erythromycin 1 mg/L; for MIC, erythromycin [1 mg/L] no: without erythromycin, Table 4
Description: (§5) Erythromycin is a macrolide antibiotic that inhibits proteosynthesis by binding to the 50S subunit of the ribosome. In Staphylococcus species, resistance to erythromycin is associated with the presence of methyltransferases (encoded by erm genes) that alter the ribosomal target site. Another typical mechanism of resistance to erythromycin is the presence of an ATP-dependent efflux pump encoded by the msr(A) gene or a major facilitator superfamily (MFS) pump encoded by the lmrS gene. Both efflux pumps reduce the concentration of erythromycin in the cell below the therapeutic dose by transporting it across the membrane to the extracellular space. Another erythromycin resistance gene is the mph(C) gene, the product of which is a phosphotransferase that alters the structure of macrolide antibiotics. To elucidate the mechanism of erythromycin resistance modulation in S. aureus, further tests were performed with the strains MRSA 331 and MRSA 3596, which inactivate erythromycin via a single mechanism (ermC and ermA, respectively). […] Therefore, if the activity was not strain-specific, it would be necessary to consider the effect of the derivatives on this pump (Table 3).
Among the mechanisms of resistance to gentamicin previously described in S. aureus, the presence of enzymes that alter the structure of aminoglycosides is crucial. These enzymes can transfer nucleotides, phosphates, or acetyls to various −OH or −NH2 groups of gentamicin, preventing its subsequent interaction with the cellular target, i.e., the 30S ribosomal subunit. The bifunctional aminoglycoside-modifying enzyme with acetylation and phosphotransferase activities encoded by the gene aac(6’)/aph(2’), 4′,4″ adenyltransferase encoded by the aadD gene, and aminoglycoside O-phosphotransferase encoded by the gene aph(3′) are the most important.[37] […] For this reason, further testing continued using strains MRSA 3596 and MRSA 1584, which inactivate gentamicin only by a single mechanism (aadD and aac(6’)-aph(2’’), respectively).
as §3, §4

[6] = tested on: S. aureus CCM 4223; assay: Antibacterial activity, antibiotic-sensitive strain; format: cell-based; conditions: Staphylococcus aureus, CCM4223, three repetitions ± SEM
[7] = tested on: Methicilin-Resistant S. aureus 331 Strain; assay: Mode of antimicrobial action with erythromycin, ermC-positive strain; format: cell-based; conditions: for MIC, erythromycin [1 mg/L] yes / MIC, erythromycin [1 mg/L] no: MRSA 331 (ermC); for MIC, erythromycin [1 mg/L] yes: with erythromycin 1 mg/L; for MIC, erythromycin [1 mg/L] no: without erythromycin; for FIC (Fractional Inhibitory Concentration Index): with erythromycin
Description: as §5, §3, §4

[8] = 72 h incubation, resazurin, average of three repetitions ± SEM

| Structure (SMILES) | IC50 [1] | IC50 [2] | IC50 [3, 8] | minimum inhibitory concentration (MIC) in the presence of erythromycin [4] | minimum inhibitory concentration (MIC) in the presence of gentamicin [4] | MIC, Gentamicin [1 mg/L] yes [5] | MIC [5] | IC50 [6] | IC50 [3] | MIC, erythromycin [1 mg/L] yes [7] | MIC, erythromycin [1 mg/L] no [7] | effect (mode of action with erythromycin) [5] | effect (mode of action with gentamicin) [5] | MIC, erythromycin [1 mg/L] yes [5] | MIC, erythromycin [1 mg/L] no [5] | FIC (Fractional Inhibitory Concentration Index) ([7]; MRSA 331) | FIC (Fractional Inhibitory Concentration Index) ([5]; with erythromycin) | FIC (Fractional Inhibitory Concentration Index) ([5]; with gentamicin) | also measured |
| --- | --- | --- | --- | --- | --- | --- | --- | --- | --- | --- | --- | --- | --- | --- | --- | --- | --- | --- | --- |
| O=c1c(O)c(-c2ccc(O)c(O)c2)oc2c(Nc3ccc(F)cc3)c(O)cc(O)c12 [compound 5, 2-(3,4-Dihydroxyphenyl)-8-(4-fluoroanilino)-3,5,7-trihydroxy-4H–1-benzopyran-4-one] | 37.4 ± 1.6 µM | > 50 µM | 37.6 ± 3.4 µM | >200 µM | 45.2 ± 0.6 µM | > 200 µM | > 200 µM | 28 ± 0.1 µM |  |  |  |  |  |  |  |  |  |  |  |
| O=c1c(O)c(-c2ccc(O)c(O)c2)oc2c(Nc3ccc(C(F)(F)F)cc3)c(O)cc(O)c12 [compound 8, 2-(3,4-Dihydroxyphenyl)-8-(4-(trifluoromethyl)anilino)-3,5,7-trihydroxy-4H–1-benzopyran-4-one] | 53.3 ± 0.8 µM | > 50 µM |  | >25 ^note 3 μM | 8.1 µM and 8.1 ± 0.6 µM | 5.7 ± 0.1 µM (≈ 2.63 µg/mL) | 37.9 ± 0.1 µM (≈ 17.5 µg/mL) | 39.3 ± 1.8 µM | 117.1 ± 0.1 µM | 15.9 ± 0.8 µM (≈ 7.34 µg/mL) | 6.9 ± 0.2 µM (≈ 3.18 µg/mL) | synergy (Fractional Inhibitory Concentration Index (FIC) < 0.5 indicates synergism) | synergy (Fractional Inhibitory Concentration Index (FIC) < 0.5 indicates synergism) | 8.4 ± 1.1 µM (≈ 3.88 µg/mL) | 37.9 ± 0.1 µM (≈ 17.5 µg/mL) |  |  |  | effect (mode of action with erythromycin) ([7]; MRSA 331): antagonism (≥2 indicates antagonism) |
| O=c1c(O)c(-c2ccc(O)c(O)c2)oc2cc(O)cc(O)c12 [compound 4, quercetin, reference compound] | 9.3 ± 0.6 µM | 55.1 ± 2.1 µM |  | 117.3 ± 4.7 µM | >200 ^note 1 μM | 54.5 ± 0.6 µM (≈ 16.5 µg/mL) | 178 ± 2.7 µM (≈ 53.8 µg/mL) | > 200 µM | 127 ± 3.4 µM | 190.9 ± 0.5 µM (≈ 57.7 µg/mL) | 193.1 ± 1.0 µM (≈ 58.4 µg/mL) | synergy (Fractional Inhibitory Concentration Index (FIC) < 0.5 indicates synergism) | synergy (Fractional Inhibitory Concentration Index (FIC) < 0.5 indicates synergism) | 58.6 ± 1.2 µM (≈ 17.7 µg/mL) | 178.1 ± 2.7 µM (≈ 53.8 µg/mL) | 0.99 ± 0.01 | 0.33 ± 0.01 | 0.31 ± 0.01 | inhibition at 200 µM ([4]; Staphylococcus aureus, MRSA, with gentamicin 1 mg/L, maximum concentration used (200 μM), read-out: maximum concentration used inhibited bacterial growth to): 57%; effect (mode of action with erythromycin) ([5]; listed as quercetin): synergistic activity |
| O=c1cc(-c2ccc(O)c(O)c2)oc2c(Nc3ccc(C(F)(F)F)cc3)c(O)cc(O)c12 [compound 14, 2-(3,4-Dihydroxyphenyl)-8-(4-(trifluoromethyl)anilino)-5,7-dihydroxy-4H–1-benzopyran-4-one] | > 25 µM | > 25 µM |  | >15 ^note 5 μM |  | > 200 µM | > 200 µM | 15.3 ± 0.7 µM | 26.8 ± 1.6 µM | 27.0 ± 1.5 µM (≈ 12 µg/mL) | 27.0 ± 5.1 µM (≈ 12 µg/mL) | antagonism (≥2 indicates antagonism) |  | 29.9 ± 1.4 µM (≈ 13.3 µg/mL) | 14.4 ± 0.1 µM (≈ 6.41 µg/mL) | 1.00 ± 0.25 | 2.07 ± 0.11 |  |  |
| O=c1cc(-c2ccc(O)c(O)c2)oc2c(Nc3ccccc3)c(O)cc(O)c12 [compound 13, 2-(3,4-Dihydroxyphenyl)-8-(anilino)-5,7-dihydroxy-4H–1-benzopyran-4-one] | 29.3 ± 0.1 µM | > 25 µM | 41.4 ± 3.7 µM | >200 µM | 24.7 ± 0.8 µM | 23.2 ± 0.4 µM (≈ 8.75 µg/mL) | 93 ± 0.6 µM (≈ 35.1 µg/mL) | 50 ± 1.2 µM |  |  |  |  | synergy (Fractional Inhibitory Concentration Index (FIC) < 0.5 indicates synergism) |  |  |  |  | 0.25 ± 0.01 |  |
| O=c1cc(-c2ccc(O)c(O)c2)oc2c(Nc3cccc(F)c3)c(O)cc(O)c12 [compound 15, 2-(3,4-Dihydroxyphenyl)-8-(3-fluoroanilino)-5,7-dihydroxy-4H–1-benzopyran-4-one] | 31.8 ± 0.9 µM | > 25 µM | 26 ± 5.8 µM | >200 µM | 12.4 ± 0.3 µM | 5.3 ± 0.1 µM (≈ 2.1 µg/mL) | 25.7 ± 0.4 µM (≈ 10.2 µg/mL) | 28 ± 2.2 µM |  |  |  |  | synergy (Fractional Inhibitory Concentration Index (FIC) < 0.5 indicates synergism) |  |  |  |  | 0.21 ± 0.1 |  |
